The term IC50 denotes the concentration that inhibits the measured activity by half.

SMILES strings stand for the structures.

Chain of USP1 (construct USP1 (I-785, GG670, 671AA)/UAF1 (I-677)-Flag) (O94782 whole entry G670A/G671A): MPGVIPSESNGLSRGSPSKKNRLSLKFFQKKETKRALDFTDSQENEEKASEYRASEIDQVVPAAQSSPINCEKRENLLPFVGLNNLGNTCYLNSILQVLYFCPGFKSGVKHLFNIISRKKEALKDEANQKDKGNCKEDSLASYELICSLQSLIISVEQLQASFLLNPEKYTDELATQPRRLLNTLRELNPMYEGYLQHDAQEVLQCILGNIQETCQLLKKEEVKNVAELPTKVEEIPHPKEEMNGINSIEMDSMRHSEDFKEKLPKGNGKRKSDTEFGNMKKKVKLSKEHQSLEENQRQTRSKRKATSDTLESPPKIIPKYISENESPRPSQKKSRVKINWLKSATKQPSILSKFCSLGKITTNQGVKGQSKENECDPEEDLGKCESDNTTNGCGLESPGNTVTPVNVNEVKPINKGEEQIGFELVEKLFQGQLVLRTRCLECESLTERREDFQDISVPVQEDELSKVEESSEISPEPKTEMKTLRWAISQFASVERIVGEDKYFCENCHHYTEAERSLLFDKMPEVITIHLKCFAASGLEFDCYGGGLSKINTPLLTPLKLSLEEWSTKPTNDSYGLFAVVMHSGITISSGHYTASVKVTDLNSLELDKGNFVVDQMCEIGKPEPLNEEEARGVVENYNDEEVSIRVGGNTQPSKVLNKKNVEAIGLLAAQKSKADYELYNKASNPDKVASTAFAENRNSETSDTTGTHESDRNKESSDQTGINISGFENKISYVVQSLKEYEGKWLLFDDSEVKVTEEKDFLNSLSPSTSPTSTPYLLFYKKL
Chain of USP1 (construct USP1 (I-785, GG670, 671AA)/UAF1 (I-677)-Flag) (Q8TAF3 whole entry partner): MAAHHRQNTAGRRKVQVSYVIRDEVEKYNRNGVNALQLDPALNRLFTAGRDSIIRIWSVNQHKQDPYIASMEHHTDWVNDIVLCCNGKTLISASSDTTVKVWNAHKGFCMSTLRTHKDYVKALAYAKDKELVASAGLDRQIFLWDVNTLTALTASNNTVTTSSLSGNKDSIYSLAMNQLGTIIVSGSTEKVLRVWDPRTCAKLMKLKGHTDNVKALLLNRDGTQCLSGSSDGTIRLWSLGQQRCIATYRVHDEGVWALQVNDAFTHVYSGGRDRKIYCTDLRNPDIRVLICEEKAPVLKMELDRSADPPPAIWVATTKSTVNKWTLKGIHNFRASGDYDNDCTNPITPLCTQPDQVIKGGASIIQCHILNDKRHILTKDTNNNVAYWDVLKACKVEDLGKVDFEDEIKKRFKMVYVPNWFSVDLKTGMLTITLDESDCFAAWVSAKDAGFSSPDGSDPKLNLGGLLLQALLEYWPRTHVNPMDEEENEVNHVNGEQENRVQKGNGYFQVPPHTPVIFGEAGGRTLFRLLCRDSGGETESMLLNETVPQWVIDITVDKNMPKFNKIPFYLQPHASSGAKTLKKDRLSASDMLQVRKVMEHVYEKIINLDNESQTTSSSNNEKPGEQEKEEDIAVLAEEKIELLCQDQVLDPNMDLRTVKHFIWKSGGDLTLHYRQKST

The target in the assay is USP1 (construct USP1 (I-785, GG670, 671AA)/UAF1 (I-677)-Flag) (Homo sapiens (Human), UniProt O94782, G670A/G671A). The experiment in a line: Ubiquitin-Rhodamine 110 assay for USP1 activity. Type of assay: biochemical. The conditions noted are these: USP1/UAF1 25 pM, Ub-Rh110 25 nM, 30 min preincubation. The gist of the method:
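Ub-Rh110 (25 nM, ≪Km) cleavage read at ex 485/em 535 in Tris pH 8.0, CaCl2, GSH, Prionex, Triton X-100. The screen used 10 µM compound, 100 pM USP1/UAF1 and 45 min at RT.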
On to `Cc1cn(C)c(N2CCC(Cn3c(=O)n(C)c4cnc(-c5ccccc5C(C)C)nc43)CC2)n1` [Compound I-501, 9-((1-(1,4-Dimethyl-1H-imidazol-2-yl)piperidin-4-yl)methyl)-2-(2-isopropylphenyl)-7-methyl-7,9-dihydro-8H-purin-8-one], for which the IC50 fell in the range of 50 to 200 nM.
In the case of `CC(C)c1ccccc1-c1ncc2[nH]c(=O)n(Cc3ccc(C(=O)NCCN4CCCCC4)cc3)c2n1` [Compound I-409, 4-((2-(2-isopropylphenyl)-8-oxo-7,8-dihydro-9H-purin-9-yl)methyl)-N-(2-(piperidin-1-yl)ethyl)benzamide], the IC50 is more than 2000 nM.
As for `Cc1cc(C)n([C@H]2CC[C@H](Cn3c(=O)n(C)c4cnc(-c5ccccc5C(C)C)nc43)CC2)n1` [Compound I-112, 9-(((1r,4r)-4-(3,5-dimethyl-1H-pyrazol-1-yl)cyclohexyl)methyl)-2-(2-isopropylphenyl)-7-methyl-7,9-dihydro-8H-purin-8-one], the IC50 was more than 2000 nM.
For `CC(C)c1ccccc1-c1ncc2[nH]c(=O)n(Cc3ccc(-c4ccnn4C)cc3)c2n1` [Compound I-256, 2-(2-isopropylphenyl)-9-(4-(1-methyl-1H-pyrazol-5-yl)benzyl)-7,9-dihydro-8H-purin-8-one] the value was less than 50 nM; for `O=c1[nH]c2cnc(-c3cc(Cl)ccc3C3CC3)nc2n1Cc1ccc(-n2cccn2)cc1` [Compound I-95, 9-(4-(1H-pyrazol-1-yl)benzyl)-2-(5-chloro-2-cyclopropylphenyl)-7,9-dihydro-8H-purin-8-one], less than 50 nM.
For `CCOCCOc1ncccc1-c1ncc2[nH]c(=O)n(Cc3ccc(-c4nc(C(F)(F)F)cn4C)cc3)c2n1` [Compound I-415, 2-(2-(2-ethoxyethoxy)pyridin-3-yl)-9-(4-(1-methyl-4-(trifluoromethyl)-1H-imidazol-2-yl)benzyl)-7,9-dihydro-8H-purin-8-one], the IC50 was less than 50 nM.
For `Cc1nc(-c2ccc(Cn3c(=O)[nH]c4cnc(-c5ccccc5C(C)C)nc43)cc2)c(C)s1` [Compound I-301, 9-(4-(2,5-dimethylthiazol-4-yl)benzyl)-2-(2-isopropylphenyl)-7,9-dihydro-8H-purin-8-one] the value was less than 50 nM.
As for `COCCN(C)c1ncccc1-c1ncc2[nH]c(=O)n(Cc3ccc(-c4nc(C(F)(F)F)cn4C)cc3)c2n1` [Compound I-327, 2-(2-((2-methoxyethyl)(methyl)amino)pyridin-3-yl)-9-(4-(1-methyl-4-(trifluoromethyl)-1H-imidazol-2-yl)benzyl)-7,9-dihydro-8H-purin-8-one], the IC50 is 50 to 200 nM.
The compound `CCNc1ncccc1-c1ncc2[nH]c(=O)n(Cc3ccc(-c4nc(C(F)(F)F)cn4C)cc3)c2n1` [Compound I-312, 2-(2-(ethylamino)pyridin-3-yl)-9-(4-(1-methyl-4-(trifluoromethyl)-1H-imidazol-2-yl)benzyl)-7,9-dihydro-8H-purin-8-one] came in with an IC50 of less than 50 nM.
`CC(C)c1ncccc1-c1ncc2[nH]c(=O)n(Cc3ccc(-n4ccc(C5CCN(C)CC5)n4)cc3)c2n1` [Compound I-442, 2-(2-isopropylpyridin-3-yl)-9-(4-(3-(1-methylpiperidin-4-yl)-1H-pyrazol-1-yl)benzyl)-7,9-dihydro-8H-purin-8-one] showed an IC50 of more than 2000 nM.
For `CCOCCNc1ncccc1-c1ncc2[nH]c(=O)n(Cc3ccc(-c4nc(C(F)(F)F)cn4C)cc3)c2n1` [Compound I-315, 2-(2-((2-ethoxyethyl)amino)pyridin-3-yl)-9-(4-(1-methyl-4-(trifluoromethyl)-1H-imidazol-2-yl)benzyl)-7,9-dihydro-8H-purin-8-one] the value was less than 50 nM; for `COCCN(C)C(=O)c1ccc(Cn2c(=O)[nH]c3cnc(-c4ccccc4C(C)C)nc32)cc1` [Compound I-407, 4-((2-(2-isopropylphenyl)-8-oxo-7,8-dihydro-9H-purin-9-yl)methyl)-N-(2-methoxyethyl)-N-methylbenzamide], 50 to 200 nM.
In turn, `CC(C)c1ccccc1-c1ncc2c(n1)n(Cc1cccc(OCC3CCCN(C)C3)c1)c(=O)n2C` (stereo not shown) [Compound I-241, 2-(2-isopropylphenyl)-7-methyl-9-(3-((1-methylpiperidin-3-yl)methoxy)benzyl)-7,9-dihydro-8H-purin-8-one] showed an IC50 of 200 to 2000 nM.
For `CCCOc1ccccc1-c1ncc2[nH]c(=O)n(Cc3ccc(-n4cccn4)cc3)c2n1` [Compound I-21, 9-(4-(1H-pyrazol-1-yl)benzyl)-2-(2-propoxyphenyl)-7,9-dihydro-8H-purin-8-one] the value was 50 to 200 nM.
`CC(C)c1ccccc1-c1ncc2[nH]c(=O)n(Cc3ccc(C(=O)NC4CCCC4)cc3)c2n1` [Compound I-358, N-cyclopentyl-4-((2-(2-isopropylphenyl)-8-oxo-7,8-dihydro-9H-purin-9-yl)methyl)benzamide] displayed an IC50 of 50 to 200 nM.
For `CC(C)c1ccccc1-c1ncc2[nH]c(=O)n(Cc3ccc(-n4cccn4)cc3Cl)c2n1` [Compound I-162, 9-(2-chloro-4-(1H-pyrazol-1-yl)benzyl)-2-(2-isopropylphenyl)-7,9-dihydro-8H-purin-8-one] the value was 50 to 200 nM.
`Cn1cc(C(F)(F)F)nc1-c1ccc(Cn2c(=O)[nH]c3cnc(-c4cccnc4N[C@H]4CCOC4)nc32)cc1` [Compound I-322, (S)-9-(4-(1-methyl-4-(trifluoromethyl)-1H-imidazol-2-yl)benzyl)-2-(2-((tetrahydrofuran-3-yl)amino)pyridin-3-yl)-7,9-dihydro-8H-purin-8-one]: the IC50 was in the range of 50 to 200 nM.
For `CC(C)c1ncccc1-c1ncc2[nH]c(=O)n([C@@H](C)c3ccc(-n4cccn4)cc3)c2n1` [Compound I-13, (S)-9-(1-(4-(1H-pyrazol-1-yl)phenyl)ethyl)-2-(2-isopropylpyridin-3-yl)-7,9-dihydro-8H-purin-8-one] the value was 200 to 2000 nM; for `CC(C)c1cc(F)ccc1-c1ncc2c(n1)n(Cc1ccc(-n3cccn3)cc1)c(=O)n2C` [Compound I-10, 9-(4-(1H-pyrazol-1-yl)benzyl)-2-(4-fluoro-2-isopropylphenyl)-7-methyl-7,9-dihydro-8H-purin-8-one], 200 to 2000 nM.
For `CC(C)c1ccccc1-c1ncc2c(n1)n(CC1CCN(c3nncs3)CC1)c(=O)n2C` [Compound I-492, 9-((1-(1,3,4-thiadiazol-2-yl)piperidin-4-yl)methyl)-2-(2-isopropylphenyl)-7-methyl-7,9-dihydro-8H-purin-8-one] the value was more than 2000 nM; for `CC(C)c1ccccc1-c1ncc2[nH]c(=O)n(CC3(F)CCN(c4cccnc4)CC3)c2n1` [Compound I-505, 9-((4-Fluoro-1-(pyridin-3-yl)piperidin-4-yl)methyl)-2-(2-isopropylphenyl)-7,9-dihydro-8H-purin-8-one], 200 to 2000 nM; for `COCCN(C)c1ccc(Cn2c(=O)n(C)c3cnc(-c4ccccc4C(C)C)nc32)cc1` [Compound I-491, 2-(2-isopropylphenyl)-9-(4-((2-methoxyethyl)(methyl)amino)benzyl)-7-methyl-7,9-dihydro-8H-purin-8-one], 200 to 2000 nM.
For `CC(C)c1ccccc1-c1ncc2[nH]c(=O)n(Cc3ccc(-c4cn(CCO)nn4)cc3)c2n1` [Compound I-522, 9-(4-(1-(2-Hydroxyethyl)-1H-1,2,3-triazol-4-yl)benzyl)-2-(2-isopropylphenyl)-7,9-dihydro-8H-purin-8-one] the value was 200 to 2000 nM; for `CCC(N)(CC)c1cn(-c2ccc(Cn3c(=O)[nH]c4cnc(-c5ccccc5C(C)C)nc43)cc2)nn1` [Compound I-348, 9-(4-(4-(3-aminopentan-3-yl)-1H-1,2,3-triazol-1-yl)benzyl)-2-(2-isopropylphenyl)-7,9-dihydro-8H-purin-8-one], more than 2000 nM.
`CC(=O)N1CCC(c2ccn(-c3ccc(Cn4c(=O)[nH]c5cnc(-c6ccccc6C(C)C)nc54)cc3)n2)C1` (stereo not shown) [Compound I-467, 9-(4-(3-(1-acetylpyrrolidin-3-yl)-1H-pyrazol-1-yl)benzyl)-2-(2-isopropylphenyl)-7,9-dihydro-8H-purin-8-one] came in with an IC50 of 50 to 200 nM.
For `CC(C)c1ncccc1-c1ncc2[nH]c(=O)n(Cc3ccc(-c4ccn(C)n4)cc3)c2n1` [Compound I-46, 2-(2-isopropylpyridin-3-yl)-9-(4-(1-methyl-1H-pyrazol-3-yl)benzyl)-7,9-dihydro-8H-purin-8-one] the value was 200 to 2000 nM; for `CC(C)c1ccccc1-c1ncc2[nH]c(=O)n([C@H]3CC[C@@H]3c3ccc(-n4cccn4)cc3)c2n1` [Compound I-164, 9-((1S,2R)-2-(4-(1H-pyrazol-1-yl)phenyl)cyclobutyl)-2-(2-isopropylphenyl)-7,9-dihydro-8H-purin-8-one], 200 to 2000 nM.
Compound `CC(C)c1ccccc1-c1ncc2[nH]c(=O)n(Cc3ccc(-c4ncc(C(F)(F)F)n4C)cc3)c2n1` [Compound I-219, 2-(2-isopropylphenyl)-9-(4-(1-methyl-5-(trifluoromethyl)-1H-imidazol-2-yl)benzyl)-7,9-dihydro-8H-purin-8-one] yielded an IC50 of less than 50 nM.
As for `CC(C)c1ccccc1-c1ncc2c(n1)n(Cc1ccc(OCCCN(C)C)cc1)c(=O)n2C` [Compound I-234, 9-(4-(3-(dimethylamino)propoxy)benzyl)-2-(2-isopropylphenyl)-7-methyl-7,9-dihydro-8H-purin-8-one], the IC50 is more than 2000 nM.
Regarding `Cc1cc(N2CCC2)nn1-c1ccc(Cn2c(=O)n(C)c3cnc(-c4cccnc4C(C)C)nc32)cc1` [Compound I-109, 9-(4-(3-(azetidin-1-yl)-5-methyl-1H-pyrazol-1-yl)benzyl)-2-(2-isopropylpyridin-3-yl)-7-methyl-7,9-dihydro-8H-purin-8-one], the IC50 was 50 to 200 nM.
In turn, `CC(C)c1ccccc1-c1ncc2[nH]c(=O)n(Cc3ccc(-c4cccc(CCN(C)C)c4)cc3)c2n1` [Compound I-248, 9-((3′-(2-(dimethylamino)ethyl)-[1,1′-biphenyl]-4-yl)methyl)-2-(2-isopropylphenyl)-7,9-dihydro-8H-purin-8-one] returned an IC50 of 200 to 2000 nM.
